Experimental data as given in ChEMBL document CHEMBL3244224, “Synthesis and central nervous system activity of 2-arylidene-4-aminoalkyl-2H-1,4-benzoxazin-3(4H)-ones and related compounds” (J Med Chem, 1977).
Active and inactive are the calls of the source. The calls are words filed in the database; no cut-off is given here.

Assays:
[1] = (§1) Antagonist activity at dopamine receptor in Sprague-Dawley rat olfactory tubercles assessed as inhibition of adenylate cyclase activity after 5 mins; type: tissue-based, Olfactory tubercle; conditions: read-out: I50
Rattus norvegicus [2] = assay: Central nervous system activity in ip dosed rat assessed as dose required to cause decreased reflex action by measuring decreased grip strength; type: functional
[3] = (§2) Antagonist activity at dopamine receptor in Sprague-Dawley rat olfactory tubercles assessed as inhibition of dopamine-induced adenylate cyclase activity after 5 mins; type: tissue-based, Olfactory tubercle; conditions: read-out: I50
Rattus norvegicus [4] = assay: Central nervous system activity in ip dosed rat assessed as dose required to cause depression by measuring decreased motor activity; type: functional
Rattus norvegicus [5] = species on record: Rattus norvegicus; assay: as §1; type: tissue-based; conditions: Olfactory tubercle
Rattus norvegicus [6] = species on record: Rattus norvegicus; assay: Antagonist activity at dopamine receptor in Sprague-Dawley rat olfactory tubercles assessed as inhibition of adenylate cyclase activity at 10 uM after 5 mins; type: tissue-based; conditions: Olfactory tubercle
Rattus norvegicus [7] = species on record: Rattus norvegicus; assay: Antagonist activity at dopamine receptor in Sprague-Dawley rat olfactory tubercles assessed as inhibition of adenylate cyclase activity at 100 uM after 5 mins; type: tissue-based; conditions: Olfactory tubercle
Rattus norvegicus [8] = species on record: Rattus norvegicus; assay: Antagonist activity at dopamine receptor in Sprague-Dawley rat olfactory tubercles assessed as inhibition of dopamine-induced adenylate cyclase activity at 100 uM after 5 mins; type: tissue-based; conditions: Olfactory tubercle
Rattus norvegicus [9] = species on record: Rattus norvegicus; assay: as §2; type: tissue-based; conditions: Olfactory tubercle

| Structure (SMILES) | IC50 [1] | ED (Rattus norvegicus [2]) | IC50 [3] | ED (Rattus norvegicus [4]) | I50 (Rattus norvegicus [5]) | inhibition (Rattus norvegicus [6]) | inhibition (Rattus norvegicus [7]) | inhibition (Rattus norvegicus [8]) | I50 (Rattus norvegicus [9]) |
| --- | --- | --- | --- | --- | --- | --- | --- | --- | --- |
| COc1ccc2c(c1)N(CCCN(C)C)C(=O)/C(=C/c1ccccc1)O2.Cl | > 100 µM | >200 mg/kg | 60 µM | >200 mg/kg | – | – | – | – | – |
| CN(C)CCCN1C(=O)/C(=C/c2ccccc2)Oc2ccccc21.Cl | 600 µM | 25 mg/kg | 33 µM | 25 mg/kg | – | – | – | – | – |
| CN(C)CCCN1C(=O)/C(=C/c2ccc(Cl)cc2)Oc2ccccc21.Cl | 450 µM | 100 mg/kg | 30 µM | 100 mg/kg | – | – | – | – | – |
| CN(C)CCCN1C(=O)/C(=C/c2cccs2)Oc2ccccc21.Cl | > 200 µM | 100 mg/kg | 56 µM | 100 mg/kg | – | – | – | – | – |
| CN1CCN(CCCN2C(=O)C(Cc3ccccc3)Oc3ccccc32)CC1.Cl (stereo not given) | – | 50 mg/kg | – | >200 mg/kg | – | – | – | – | – |
| CN(C)CCCN1C(=O)C(Cc2ccccc2)Oc2ccc(Cl)cc21.Cl (stereo not given) | – | 100 mg/kg | – | >200 mg/kg | – | – | – | – | – |
| CCCC(C)(COC(N)=O)COC(N)=O [MEPROBAMATE] | – | 25 mg/kg | – | 50 mg/kg | – | – | – | – | – |
| CN(C)CCCN1C(=O)C(Cc2ccccc2)Oc2ccccc21.Cl (stereo not given) | – | 50 mg/kg | – | 100 mg/kg | – | – | – | – | – |
| OCCN1CCN(CCCN2c3ccccc3Sc3ccc(C(F)(F)F)cc32)CC1 [FLUPHENAZINE] | – | – | 0.5 µM | – | inactive | < 10% | – | – | – |
| Cl.O=C1/C(=C/c2ccccc2)Oc2ccccc2N1CCCN1CCN(c2ccccc2)CC1 | – | 100 mg/kg | – | 100 mg/kg | inactive | – | < 10% | < 10% | inactive |
| CCN(CC)CCCN1C(=O)/C(=C/c2ccccc2)Oc2ccccc21.Cl | > 100 µM | 12.5 mg/kg | 60 µM | 50 mg/kg | – | – | – | – | – |
| CN1CCN(C2=Nc3cc(Cl)ccc3Nc3ccccc32)CC1 [CLOZAPINE] | – | – | 6 µM | – | inactive | – | < 10% | – | – |
| O=C1Nc2ccccc2O/C1=C\c1ccccc1 | – | >200 mg/kg | – | >200 mg/kg | inactive | – | < 10% | < 10% | inactive |
| Cc1ccc2c(c1)N(CCCN(C)C)C(=O)/C(=C/c1ccccc1)O2.O=C(O)CCC(=O)O | 450 µM | 100 mg/kg | 15 µM | 100 mg/kg | – | – | – | – | – |
| CN1CCN(CCCN2C(=O)/C(=C/c3ccccc3)Oc3ccccc32)CC1.Cl | 450 µM | 12.5 mg/kg | 35 µM | 50 mg/kg | – | – | – | – | – |
| CN(C)CCCN1C(=O)/C(=C/c2ccccc2)Oc2ccc(Cl)cc21.Cl | > 100 µM | 200 mg/kg | 100 µM | >200 mg/kg | – | – | – | – | – |
| Cl.O=C1/C(=C/c2ccccc2)Oc2ccccc2N1CCN1CCOCC1 | – | >200 mg/kg | – | >200 mg/kg | inactive | – | < 10% | < 10% | inactive |
| CN(C)CCCCN1C(=O)/C(=C/c2ccccc2)Oc2ccccc21.Cl | > 200 µM | 50 mg/kg | 80 µM | >200 mg/kg | – | – | – | – | – |
| CN(C)CCN1C(=O)C(Cc2ccccc2)Oc2ccccc21.Cl (stereo not given) | – | 200 mg/kg | – | >200 mg/kg | – | – | – | – | – |
| CN(C)CCCN1C(=O)/C(=C/c2ccccc2Cl)Oc2ccccc21.Cl | 170 µM | 100 mg/kg | 30 µM | >200 mg/kg | – | – | – | – | – |
| C[N+](C)(C)CCCN1C(=O)/C(=C/c2ccccc2)Oc2ccccc21.[Cl-] | 1000 µM | 50 mg/kg | 650 µM | 50 mg/kg | – | – | – | – | – |
| Cl.O=C1/C(=C/c2ccccc2)Oc2ccccc2N1CCCN1CCN(CO)CC1 | > 400 µM | 100 mg/kg | 54 µM | 100 mg/kg | – | – | – | – | – |
| CN(C)CCN1C(=O)/C(=C/c2ccccc2)Oc2ccccc21.Cl | > 100 µM | 50 mg/kg | 100 µM | 50 mg/kg | – | – | – | – | – |
| CN1CCN(CCCN2C(=O)/C(=C/c3ccccc3)Oc3ccc(Cl)cc32)CC1 | > 500 µM | >200 mg/kg | > 500 µM | >200 mg/kg | – | – | – | – | – |
